What was measured:
rat P2X3 receptor = target: T1, rat P2X3 receptor (Rattus norvegicus, UniProt P49654); experiment: P2X3/P2X2/3 FLIPR (Fluorometric Imaging Plate Reader) Assay, P2X3; type: cell-based; conditions: CHO-K1 cells transfected with rat P2X3; agonist α,β-meATP 1 μM; Table 1; read-out: P2X3 pKi (converted)
T1 construct: expressed in transfected cells; host or cells: CHO-K1
T1 sequence (P49654 1-397): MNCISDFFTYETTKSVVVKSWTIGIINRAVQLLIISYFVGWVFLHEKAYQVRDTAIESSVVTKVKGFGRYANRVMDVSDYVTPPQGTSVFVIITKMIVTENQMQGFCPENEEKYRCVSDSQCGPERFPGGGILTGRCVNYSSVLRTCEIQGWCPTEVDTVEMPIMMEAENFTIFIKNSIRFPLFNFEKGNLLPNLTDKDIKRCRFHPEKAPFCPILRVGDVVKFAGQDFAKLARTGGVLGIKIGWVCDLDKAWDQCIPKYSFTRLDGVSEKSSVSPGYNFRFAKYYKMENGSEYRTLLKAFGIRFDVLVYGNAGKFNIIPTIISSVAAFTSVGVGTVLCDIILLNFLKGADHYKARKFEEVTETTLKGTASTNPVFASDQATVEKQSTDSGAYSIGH
Method in brief: (§1)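 Cells are dye-loaded with Fluo-3 AM, then exposed to test compound for 20 minutes at room temperature. Next, α,β-meATP is added (final 1 μM for rat P2X3, 5 μM for human P2X2/3 in CHO-K1), and the peak calcium fluorescence yields inhibition curves by nonlinear regression.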

human P2X2/3 receptor = target: T2, human P2X2/3 receptor (Homo sapiens, UniProt P56373+Q9UBL9); experiment: P2X3/P2X2/3 FLIPR (Fluorometric Imaging Plate Reader) Assay, P2X2/3; type: cell-based; conditions: CHO-K1 cells transfected with human P2X2/3; agonist α,β-meATP 5 μM; Table 1; read-out: P2X2/3 pKi (converted)
T2 construct: expressed in transfected cells; host or cells: CHO-K1
T2 sequence (Q9UBL9 1-471): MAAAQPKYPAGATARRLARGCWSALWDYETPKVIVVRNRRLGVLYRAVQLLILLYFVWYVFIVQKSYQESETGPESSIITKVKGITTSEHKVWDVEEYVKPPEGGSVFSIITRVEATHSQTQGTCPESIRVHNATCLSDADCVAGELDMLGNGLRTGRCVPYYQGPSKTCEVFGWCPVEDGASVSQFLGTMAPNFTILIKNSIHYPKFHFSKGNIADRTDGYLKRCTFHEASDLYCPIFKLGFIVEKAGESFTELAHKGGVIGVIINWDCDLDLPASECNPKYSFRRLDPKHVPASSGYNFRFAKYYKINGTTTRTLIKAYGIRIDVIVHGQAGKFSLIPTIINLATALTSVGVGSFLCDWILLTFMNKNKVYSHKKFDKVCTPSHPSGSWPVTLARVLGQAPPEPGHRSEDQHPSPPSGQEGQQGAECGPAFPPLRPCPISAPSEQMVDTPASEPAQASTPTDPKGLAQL
T2 sequence (P56373 1-397): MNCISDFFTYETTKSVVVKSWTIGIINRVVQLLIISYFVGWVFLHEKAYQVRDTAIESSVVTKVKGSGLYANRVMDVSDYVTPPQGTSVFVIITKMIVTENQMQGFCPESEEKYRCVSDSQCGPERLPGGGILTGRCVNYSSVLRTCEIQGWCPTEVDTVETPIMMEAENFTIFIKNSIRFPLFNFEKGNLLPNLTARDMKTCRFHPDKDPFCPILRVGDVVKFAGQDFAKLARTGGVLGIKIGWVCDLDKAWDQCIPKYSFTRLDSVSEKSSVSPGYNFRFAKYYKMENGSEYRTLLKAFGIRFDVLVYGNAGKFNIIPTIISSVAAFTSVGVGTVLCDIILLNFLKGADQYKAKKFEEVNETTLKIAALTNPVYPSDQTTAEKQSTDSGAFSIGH
Method in brief: as §1

Row | SMILES | Ki (rat P2X3 receptor) [nM] | Ki (human P2X2/3 receptor) [nM]
1 | Cc1ccc(-c2cc(C(=O)NC(C)c3cnccn3)cc(-n3ncnc3C3CC3)c2)nc1 (stereo not shown) [Compound 60, 3-(5-Cyclopropyl-[1,2,4]triazol-1-yl)-5-(5-methyl-pyridin-2-yl)-N-(1-pyrazin-2-yl-ethyl)-benzamide] | 19.1 | 389
2 | Cc1ccc(-c2cc(C(=O)NC(C)c3cnccn3)cc(-n3ncnc3C(C)N(C)C)c2)cc1 (stereo not shown) [Compound 61, 5-[5-(1-Dimethylamino-ethyl)-[1,2,4]triazol-1-yl]-4′-methyl-biphenyl-3-carboxylic acid (1-pyrazin-2-yl-ethyl)-amide] | 5.25 | 51.3
3 | Cc1ccc(-c2cc(C(=O)NCc3cnc(C)cn3)cc(-n3ncnc3C(C)N(C)C)c2)cc1 (stereo not shown) [Compound 62, 5-[5-(1-Dimethylamino-ethyl)-[1,2,4]triazol-1-yl]-4′-methyl-biphenyl-3-carboxylic acid (5-methyl-pyrazin-2-ylmethyl)-amide] | 5.25 | 43.7
4 | CCCc1ncnn1-c1cc(C(=O)NC(C)CN(C)C)cc(-c2ccc(C)cc2)c1 (stereo not shown) [Compound 63, 4′-Methyl-5-(5-propyl-[1,2,4]triazol-1-yl)-biphenyl-3-carboxylic acid (2-dimethylamino-1-methyl-ethyl)-amide] | 339 | 10000
5 | Cc1ccc(-c2cc(C(=O)NC3CC3)cc(-n3ncnc3C(F)(F)F)c2)cc1 [Compound 64, 4′-Methyl-5-(5-trifluoromethyl-[1,2,4]triazol-1-yl)-biphenyl-3-carboxylic acid cyclopropylamide] | 4.57 | 309
6 | Cc1ccc(-c2cc(C(=O)NC(C)c3cnccn3)cc(-n3ncnc3C(F)(F)F)c2)cc1 (stereo not shown) [Compound 66, 4′-Methyl-5-(5-trifluoromethyl-[1,2,4]triazol-1-yl)-biphenyl-3-carboxylic acid (1-pyrazin-2-yl-ethyl)-amide] | 3.72 | 40.7
7 | Cc1ccc(-c2cc(C(=O)NCc3cnc(C)cn3)cc(-n3ncnc3C(F)(F)F)c2)cc1 [Compound 67, 4′-Methyl-5-(5-trifluoromethyl-[1,2,4]triazol-1-yl)-biphenyl-3-carboxylic acid (5-methyl-pyrazin-2-ylmethyl)-amide] | 6.31 | 49
8 | Cc1ccc(-c2cc(C(=O)NCc3cnc(C)cn3)cc(-n3ncnc3C(C)(F)F)c2)nc1 [Compound 69, 3-[5-(1,1-Difluoro-ethyl)-[1,2,4]triazol-1-yl]-N-(5-methyl-pyrazin-2-ylmethyl)-5-(5-methyl-pyridin-2-yl)-benzamide] | 1.86 | 26.9
9 | Cc1ccc(-c2cc(C(=O)NC(C)c3cnccn3)cc(-n3ncnc3C(C)(F)F)c2)nc1 (stereo not shown) [Compound 70, 3-[5-(1,1-Difluoro-ethyl)-[1,2,4]triazol-1-yl]-5-(5-methyl-pyridin-2-yl)-N-(1-pyrazin-2-yl-ethyl)-benzamide] | 1.91 | 42.7
10 | CC(C)Cc1ncnn1-c1cc(C(=O)NC(C)c2cnccn2)cc(-c2ccc(Cl)cn2)c1 (stereo not shown) [Compound 74, 3-(5-Chloro-pyridin-2-yl)-5-(5-isobutyl-[1,2,4]triazol-1-yl)-N-(1-pyrazin-2-yl-ethyl)-benzamide] | 4.17 | 60.3
11 | CC(NC(=O)c1cc(-c2ccc(Cl)cn2)cc(-n2ncnc2C(F)F)c1)c1cnccn1 (stereo not shown) [Compound 76, 3-(5-Chloro-pyridin-2-yl)-5-(5-difluoromethyl-[1,2,4]triazol-1-yl)-N-(1-pyrazin-2-yl-ethyl)-benzamide] | 10.2 | 741
12 | Cc1cnc(CNC(=O)c2cc(-c3ccc(Cl)cn3)cc(-n3ncnc3C(F)F)c2)cn1 [Compound 77, 3-(5-Chloro-pyridin-2-yl)-5-(5-difluoromethyl-[1,2,4]triazol-1-yl)-N-(5-methyl-pyrazin-2-ylmethyl)-benzamide] | 9.77 | 724
13 | Cc1ccc(-c2cc(C(=O)NCc3cnc(C)cn3)cc(-n3ncnc3C(C)(C)C)c2)nc1 [Compound 82, 3-(5-tert-Butyl-[1,2,4]triazol-1-yl)-N-(5-methyl-pyrazin-2-ylmethyl)-5-(5-methyl-pyridin-2-yl)-benzamide] | 6.03 | 1350
14 | Cc1cnc(CNC(=O)c2cc(-c3ccc(Cl)cn3)cc(-n3ncnc3C(C)(C)C)c2)cn1 [Compound 84, 3-(5-tert-Butyl-[1,2,4]triazol-1-yl)-5-(5-chloro-pyridin-2-yl)-N-(5-methyl-pyrazin-2-ylmethyl)-benzamide] | 14.1 | 427

Results, then the compound that gave them:

Row | Ki (rat P2X3 receptor) [nM] | Ki (human P2X2/3 receptor) [nM] | SMILES
15 | 6.76 | 2000 | Cc1ccc(-c2cc(C(=O)N[C@@H](C)CO)cc(-n3ncnc3C(F)(F)F)c2)cc1 [Compound 65, 4′-Methyl-5-(5-trifluoromethyl-[1,2,4]triazol-1-yl)-biphenyl-3-carboxylic acid ((S)-2-hydroxy-1-methyl-ethyl)-amide]
16 | 2.82 | 2290 | Cc1ccc(-c2cc(C(=O)N[C@@H](C)CO)cc(-n3ncnc3C(C)(F)F)c2)nc1 [Compound 71, 3-[5-(1,1-Difluoro-ethyl)-[1,2,4]triazol-1-yl]-N-((S)-2-hydroxy-1-methyl-ethyl)-5-(5-methyl-pyridin-2-yl)-benzamide]
17 | 9.12 | 2510 | Cc1ccc(-c2cc(C(=O)NC3CC3)cc(-n3ncnc3C(C)(F)F)c2)nc1 [Compound 72, N-Cyclopropyl-3-[5-(1,1-difluoro-ethyl)-[1,2,4]triazol-1-yl]-5-(5-methyl-pyridin-2-yl)-benzamide]
18 | 8.91 | 2190 | C[C@@H](CO)NC(=O)c1cc(-c2ccc(Cl)cn2)cc(-n2ncnc2C(C)(F)F)c1 [Compound 73, 3-(5-Chloro-pyridin-2-yl)-5-[5-(1,1-difluoro-ethyl)-[1,2,4]triazol-1-yl]-N-((S)-2-hydroxy-1-methyl-ethyl)-benzamide]
19 | 75.9 | 8710 | C[C@@H](CO)NC(=O)c1cc(-c2ccc(Cl)cn2)cc(-n2ncnc2C(F)F)c1 [Compound 78, 3-(5-Chloro-pyridin-2-yl)-5-(5-difluoromethyl-[1,2,4]triazol-1-yl)-N-((S)-2-hydroxy-1-methyl-ethyl)-benzamide]
20 | 8.51 | 372 | CC(NC(=O)c1cc(-c2ccc(Cl)cn2)cc(-n2ncnc2C(F)(F)F)c1)c1cnccn1 (stereo not shown) [Compound 79, 3-(5-Chloro-pyridin-2-yl)-N-(1-pyrazin-2-yl-ethyl)-5-(5-trifluoro-methyl-[1,2,4]triazol-1-yl)-benzamide]
21 | 8.91 | 275 | Cc1cnc(CNC(=O)c2cc(-c3ccc(Cl)cn3)cc(-n3ncnc3C(F)(F)F)c2)cn1 [Compound 80, 3-(5-Chloro-pyridin-2-yl)-N-(5-methyl-pyrazin-2-ylmethyl)-5-(5-trifluoromethyl-[1,2,4]triazol-1-yl)-benzamide]
22 | 45.7 | 3890 | C[C@@H](CO)NC(=O)c1cc(-c2ccc(Cl)cn2)cc(-n2ncnc2C(F)(F)F)c1 [Compound 81, 3-(5-Chloro-pyridin-2-yl)-N-((S)-2-hydroxy-1-methyl-ethyl)-5-(5-trifluoromethyl-[1,2,4]triazol-1-yl)-benzamide]
23 | 12.3 | 115 | CC(NC(=O)c1cc(-c2ccc(Cl)cn2)cc(-n2ncnc2C(C)(C)C)c1)c1cnccn1 (stereo not shown) [Compound 83, 3-(5-tert-Butyl-[1,2,4]triazol-1-yl)-5-(5-chloro-pyridin-2-yl)-N-(1-pyrazin-2-yl-ethyl)-benzamide]

From patent US8440708B2, “Triazole-substituted arylamides as P2X3 and P2X2/3 antagonists” (Roche Palo Alto LLC, priority 2007, dated 2013)
